From publication PMC7248975, “Sigma-1 Receptor Positron Emission Tomography: A New Molecular Imaging Approach Using (S)-(−)-[^18F]Fluspidine in Glioblastoma” (Molecules, 2020) come the findings set out here.

Assay [1] concerns the target T1, sigma-1 receptor (sig1R) (Homo sapiens, UniProt Q99720).
T1 construct: gene SIGMAR1; U87-MG cells
Put plainly: radioligand binding and displacement of (+)-[3H]pentazocine in U87-MG cells; autoradiography of tumour.

For assay [2], the target named is T2, sigma-1 receptor (sig1R) (Mus musculus, UniProt O55242).
T2 construct: gene Sigmar1; mouse brain cryosections, contralateral striatum
T2 sequence (O55242 whole entry): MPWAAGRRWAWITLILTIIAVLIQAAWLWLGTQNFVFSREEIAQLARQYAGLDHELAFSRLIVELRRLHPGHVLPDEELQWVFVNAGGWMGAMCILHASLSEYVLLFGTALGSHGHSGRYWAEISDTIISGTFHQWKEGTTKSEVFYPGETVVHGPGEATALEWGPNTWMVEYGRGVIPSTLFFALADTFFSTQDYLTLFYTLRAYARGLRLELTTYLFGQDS
The assay is described as follows: homologous radioligand displacement by autoradiography; PET in sig1R-knockout vs control mice.

T1 sequence (Q99720 whole entry): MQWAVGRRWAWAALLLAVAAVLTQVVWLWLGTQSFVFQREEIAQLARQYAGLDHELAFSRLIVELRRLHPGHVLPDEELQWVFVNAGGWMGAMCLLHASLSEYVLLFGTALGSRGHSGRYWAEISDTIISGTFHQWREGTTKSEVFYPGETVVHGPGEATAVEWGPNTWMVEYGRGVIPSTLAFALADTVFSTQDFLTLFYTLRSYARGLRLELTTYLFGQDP

On to `FCC[C@@H]1OC2(CCN(Cc3ccccc3)CC2)c2ccccc21` [(S)-(−)-[^18F]fluspidine], for which the results for the dissociation constant (Kd) on sigma-1 receptor (sig1R) [1] and at sigma-1 receptor (sig1R) [2] were 16.7 nM and 17 ± 4.8 nM, respectively.
